# Assay results from patent US6441000B1, “Compounds useful in therapy” (Pfizer Inc, priority 1999, dated 2002).
# Target: T1, mu opioid receptor (Canis lupus familiaris, UniProt A0A0F6TMT6)
# T1 construct: from tissue; host or cells: beagle brain without cerebellum, membrane homogenate
# Test: mu opioid receptor binding assay (displacement of 3H-DAMGO) in dog brain membranes
# Conditions: 3H ligand DAMGO, room temperature 90 minutes, read-out: Ki values for the μ receptor
# Experimental: The assays were conducted by the following procedure.
# Laboratory bred beagles were used as a source of dog brain tissue. Animals were euthanised, their brains removed and the cerebellum discarded. The remaining brain tissue was sectioned into small pieces approximately 3 g in weight and homogenised in 50 mM Tris pH 7.4 buffer at 4° C. using a Kinematica Polytron™ tissue homogeniser. The resulting homogenate was centrifuged at 48,400×g for 10 minutes and the supernatant discarded. The pellet was resuspended in Tris buffer and incubated at 37° C. for 10 minutes. Centrifugation, resuspension and incubation steps were repeated twice more, and the final pellet was resuspended in Tris buffer and stored at −80° C. Membrane material prepared in this manner could be stored for up to four weeks prior to use.
# For mu assays, increasing concentrations of experimental compound, (5×10^−12 to 10^−5 M), Tris buffer and ^3H ligand, ([D-Ala^2,N-Me-Phe^4,Gly-ol^5]-Enkephalin, DAMGO), were combined in polystyrene tubes. The reaction was initiated by the addition of tissue, and the mixture was incubated at room temperature for 90 minutes. The reaction was terminated by rapid filtration using a Brandel Cell Harvester™ through Betaplate™ GF/A glass fibre filters pre-soaked in 50 mM Tris pH 7.4, 0.1% polyethylenimine buffer. The filters were then washed three times with 0.5 mL ice-cold Tris pH 7.4 buffer. Washed filters were placed in bags and Starscint™ scintillant added. Bags containing the filters and scintillant were heat sealed and counted by a Betaplate™ 1204 beta counter.
# Duplicate samples were run for each experimental compound and the data generated was analysed using IC50 analysis software in Graphpad Prism.
# Ki values were calculated using Graphpad Prism according to the following formula:
# Ki=IC50/1+[^3H ligand]/KD
# where IC50 is the concentration at which 50% of the ^3H ligand is displaced by the test compound and KD is the dissociation constant for the ^3H ligand at the receptor site.
# T1 sequence (A0A0F6TMT6 1-401): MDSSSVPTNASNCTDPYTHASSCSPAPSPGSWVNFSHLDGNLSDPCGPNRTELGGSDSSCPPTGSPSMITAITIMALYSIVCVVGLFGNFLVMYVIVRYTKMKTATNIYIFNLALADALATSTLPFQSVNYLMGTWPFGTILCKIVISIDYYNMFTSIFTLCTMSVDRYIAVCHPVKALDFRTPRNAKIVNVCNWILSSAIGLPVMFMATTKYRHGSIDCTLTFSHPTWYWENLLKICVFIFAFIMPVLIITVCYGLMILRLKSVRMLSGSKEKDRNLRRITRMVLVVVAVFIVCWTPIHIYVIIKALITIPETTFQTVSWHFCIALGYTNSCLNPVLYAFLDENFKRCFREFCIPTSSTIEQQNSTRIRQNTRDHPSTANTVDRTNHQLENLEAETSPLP
row,SMILES,Ki [µM]
1,"Cc1cccc(CCN2CCC(C)(c3ccc4[nH]c(C(F)(F)F)nc4c3)C(C)C2)c1 (racemic) [Example 18, Trans-(±)-2-(Trifluoromethyl)-5-[1-(3-methylphenethyl)-3,4-dimethyl-4-piperidinyl]-1H-benzimidazole]",≤ 4
2,"CCCCCCN1CCC(C)(c2ccc3[nH]c(OC)nc3c2)C(C)C1 (racemic) [Example 7, Trans-(±)-2-Methoxy-5-(1-hexyl-3,4-dimethyl-4-piperidinyl)-1H-benzimidazole]",≤ 4
3,"CCCCCCN1CCC(C)(c2ccc3[nH]c(CC)nc3c2)C(C)C1 (racemic) [Example 12, Trans-(±)-2-ethyl-5-(1-Hexyl-3,4-dimethyl-4-piperidinyl)-1H-benzimidazole]",≤ 4
4,"CCCCCCN1CCC(C)(c2ccc3nc(C)oc3c2)C(C)C1 (racemic) [Example 28, Trans-(±)-2-Methyl-6-(1-hexyl-3,4-dimethyl-4-piperidinyl)-1,3-benzoxazole]",≤ 4
5,"CC(C)CCCCN1CCC(C)(c2ccc3[nH]cnc3c2)C(C)C1 (racemic) [Example 21, Trans-(±)-5-[1-(5-Methylhexyl)-3,4-dimethyl-4-piperidinyl]-1H-benzimidazole]",≤ 4
6,"CCCCCCN1CCC(C)(c2ccc3[nH]c(C)nc3c2)C(C)C1 (racemic) [Example 3, Trans-(±)-2-Methyl-5-(1-hexyl-3,4-dimethyl-4-piperidinyl)-1H-benzimidazole]",≤ 4
